Tests used:
Format in all cases: cell-based
[1] = tested on: cat iris sphincter (PGF2α response); test: Cat iris sphincter contraction: effect on PGF2α response; conditions: isolated cat iris sphincter, contractile response relative to 1×10^−7 M PGF2α, 30 min antagonist incubation; FIG. 1, FIG. 2
Protocol: (§1) The compounds of Examples 1 and 2 were tested for prostamide antagonist activity as follows:
(§2) The smooth muscle tension of isolated tissue preparations was measured isometrically with force displacement transducers (Grass FT-03) and recorded on a Grass polygraph (Model 7G). The organ baths contained Krebs solution maintained at 37° C. and gassed with 95% O2: 5% CO2 to give a pH of 7.4. The Krebs solution had the following composition (mM): NaCl, 118.0; KCl, 4.7; KH2PO4, 1.2; CaCl2, 1.9; MgSO4, 1.18; NaHCO3, 25.0; glucose, 11.7; indomethacin, 0.001.
(§3) Adult domestic cats were sacrificed by intravenous overdose of sodium pentobarbitol (Anthony, Arcadia, Calif., USA). The eyes were enucleated immediately and placed on ice. The iris sphincter from each eye was dissected to provide two strips ˜3 mm wide and 15-20 mm long. The sphincter muscle was mounted vertically under 50 mg tension in a jacketed 10 ml organ bath. A 60 min. equilibration period was allowed before commencing each experiment. The response to 1×10^−7 M PGF2α was determined at the beginning of each experiment as a reference. After complete washout, and return to baseline tension, tissues were allowed to re-equilibrate for 30 min. Antagonist or vehicle were then added. […] Activity of test compounds was determined as contractile responses and expressed relative to the reference standard 1×10^−7 M PGF2α.

[2] = tested on: cat iris sphincter (prostamide F2α response); test: Cat iris sphincter contraction: antagonism of prostamide F2α response; conditions: isolated cat iris sphincter, contractile response relative to 1×10^−7 M PGF2α, 30 min antagonist incubation; FIG. 1, FIG. 2
Protocol: as §1, §2, §3

[3] = tested on: cat iris sphincter (prostamide E2 response); test: Cat iris sphincter contraction: antagonism of prostamide E2 response; conditions: isolated cat iris sphincter, contractile response relative to 1×10^−7 M PGF2α, 30 min antagonist incubation; FIG. 4
Protocol: as §1, §2, §3

[4] = tested on: cat iris sphincter (PGD2 response); test: Cat iris sphincter contraction: effect on PGD2 response; conditions: isolated cat iris sphincter, contractile response relative to 1×10^−7 M PGF2α, 30 min antagonist incubation; FIG. 3
Protocol: as §1, §2, §3

[5] = tested on: cat iris sphincter (PGE2 response); test: Cat iris sphincter contraction: effect on PGE2 response; conditions: isolated cat iris sphincter, contractile response relative to 1×10^−7 M PGF2α, 30 min antagonist incubation; FIG. 4
Protocol: as §1, §2, §3

[6] = tested on: cat iris sphincter (prostamide D2 response); test: Cat iris sphincter contraction: antagonism of prostamide D2 response; conditions: isolated cat iris sphincter, contractile response relative to 1×10^−7 M PGF2α, 30 min antagonist incubation; FIG. 3
Protocol: as §1, §2, §3

SMILES	effect on response curve of PGF2α [1]	prostamide F2α antagonist activity (effect on response curve of prostamide F2α) [2]	prostamide E2 antagonist activity (effect on response curve of prostamide E2) [3]	effect on response curve of PGD2 [4]	effect on response curve of PGE2 [5]	prostamide D2 antagonist activity (effect on response curve of prostamide D2) [6]
O=C(CCc1ccc(F)cc1CC1C2CCC(O2)C1c1nc(C(=O)NCCCCC2CCCCC2)co1)NCCO (centres unmarked) [Example 2, 2-(3-{5-Fluoro-2-[2-(2-hydroxy-ethycarbamoyl)-ethyl]-benzyl}-7-oxa-bicyclo[2.2.1]hept-2-yl)-oxazole-4-carboxylic acid (4-cyclohexyl-butyl)-amide]	does not effect the response curve	displaces the response curve				
CCNC(=O)CCc1ccc(F)cc1CC1C2CCC(O2)C1c1nc(C(=O)NCCCCC2CCCCC2)co1 (centres unmarked) [Example 1, 2-{3-[2-(2-Ethylcarbamoyl-ethyl)-5-fluoro-benzyl]-7-oxa-bicyclo[2.2.1]hept-2-yl}-oxazole-4-carboxylic acid (4-cyclohexyl-butyl)-amide]	does not effect the response curve	displaces the response curve	displaces the response curve	does not effect the response curve	does not effect the response curve	displaces the response curve
